Data on 1 compound can be found in publication PMC11571015, “Hybrids of Membrane-Translocating Antimicrobial Peptides Show Enhanced Activity through Membrane Permeabilization” (ACS Medicinal Chemistry Letters, 2024).

For test [1], the system named is B. subtilis. It is filed as cell-based, B. subtilis (ATCC #6051). The following applies: 1 h, pH 7.4. The protocol:
(§1) Supplemental Information for Trevellin et al.
(§2) Peptide design and preparation […]
(§3) synthesized by GenScript (Piscataway, NJ) at >95% purity determined by HPLC and dissolved in DI water. Concentrations were measured by triplicate tryptophan absorbance readings at 280 nm (ε=5700 M–1cm–1, l=1 cm) using a ThermoScientific NanoDrop 2000 (Waltham, MA). Buforin II (BF2) included an F10W mutation used in many previous studies1-5 to allow for concentration measurements.
(§4) Bacteria included E. coli (Top10 Strain, Invitrogen/ThermoFisher) containing a plasmid for ampicillin resistance (Novagen) and/or B. subtilis (ATCC #6051). Bacterial growth was performed in TSB (trypticase soy broth) prepared at 3% w/v (30 g of media in 1 L) from BD Difco unless otherwise noted. Overnight cultures were picked from petri dishes or frozen stock and grown for 14-16 hours at 37 °C in TSB with shaking. E. coli overnight cultures were incubated with 25 μg/mL ampicillin. The overnight cultures were then diluted 1:100 in 25 mL TSB and incubated at 37 °C with shaking for 2.5 h. The culture was pelleted via centrifugation at 1500×g for 10 min at room temperature and resuspended in sterile cold wash buffer (10 mM sodium phosphate buffer and 10 mM sodium chloride, pH 7.4). These resuspended bacteria were then used for radial diffusion, microbroth dilution, and propidium iodide assays. […]
(§5) Microbroth dilution assay
(§6) Microbroth dilution assays were used to determine the minimum inhibitory concentration (MIC) of each peptide for E. coli and B. subtilis (ATCC #6051). A 1:2 serial dilution was prepared for a peptide across the top row of a 96-well plate. 100 μL of bacterial suspension (4 × 10^6 CFU/mL, diluted in sterile wash buffer, 10 mM sodium phosphate buffer and 10 mM sodium chloride, pH 7.4) and 10 μL of peptide were mixed to each well in subsequent rows of the plate. The 11 effective peptide concentrations ranged from 18.2 μM to 1.8x10-2 μM, with DI water used as a control, and each concentration was tested in triplicate per plate. After the bacteria and peptide mixtures were incubated in plates at 37°C for 1 hour, 100 μL of 6% w/v TSB was added to each well. For wells containing E. coli, ampicillin was added at a final concentration of 25 µg/ml. The plate was then incubated overnight (18-24 h) at 37°C. After incubation, OD600nm were measured using the SpectraMax M3 microplate reader (Molecular Devices). […]
(§7) relative permeability = F5/F0
(§8) Each peptide was tested with bacteria grown from at least three distinct overnight […]
(§9) The MTS assay is a colorimetric viability assay for mammalian cells. HEK 293 cells (ATCC CRL-1573) were grown in complete growth medium (EMEM, 10% fetal bovine serum, 1% penicillin-streptomycin). Cells were cultured in a T-75 maintenance flask, fed with fresh media every 1-2 days, and passaged approximately every 5-7 days once cells reached 70-90% confluence. During passaging, HEK 293 cells were plated in a 96-well plate at 20,000 cells/well and incubated for 4-6 hours (37 °C, 95% humidity, 5% CO2). Each column of cells (8 replicates) was then incubated overnight with 18.2 µM peptide or a control. After incubation, media was aspirated and refreshed for each well, […]

Test [2] concerns E. coli. It is filed as cell-based, E. coli (Top10 Strain). As to conditions: median MIC; microbroth dilution, 1:2 serial dilution 18.2 to 1.8x10-2 μM, 4 × 10^6 CFU/mL, 1 h 37°C in wash buffer pH 7.4, then TSB overnight (18-24 h), OD600; triplicate per plate; mixture: each peptide at the reported concentration. How it is done:
as §1, §2, §3, §4, §5, §6, §7, §8, §9
For orientation: Dilution methods test growth across graded concentrations, often in twofold steps.

In brackets after ≈: the same amount, converted by molar mass.

As to `CC[C@H](C)[C@H](NC(=O)[C@H](CCCNC(=N)N)NC(=O)[C@@H](NC(=O)[C@H](CCCCN)NC(=O)[C@H](CCCCN)NC(=O)[C@H](CC(N)=O)NC(=O)[C@H](CC(=O)O)NC(=O)[C@H](CCCNC(=N)N)NC(=O)[C@H](C)N)[C@@H](C)O)C(=O)N[C@@H](Cc1c[nH]c2ccccc12)C(=O)N1CCC[C@H]1C(=O)N[C@@H](CCCNC(=N)N)C(=O)N[C@@H](Cc1c[nH]cn1)C(=O)N[C@@H](CC(C)C)C(=O)N[C@@H](CCC(N)=O)C(=O)N[C@@H](CC(C)C)C(=O)N[C@@H](C)C(=O)N[C@H](C(=O)N[C@@H](CCCNC(=N)N)C(=O)N[C@@H](CC(N)=O)C(=O)N[C@@H](C)C(=O)N[C@H](C(=O)N[C@@H](CCCNC(=N)N)C(=O)N[C@@H](CO)C(=O)N[C@@H](CO)C(=O)N[C@@H](CCCNC(=N)N)C(=O)N[C@@H](C)C(=O)NCC(=O)N[C@@H](CC(C)C)C(=O)N[C@@H](CCC(N)=O)C(=O)N[C@@H](Cc1c[nH]c2ccccc12)C(=O)N1CCC[C@H]1C(=O)N[C@H](C(=O)NCC(=O)N[C@@H](CCCNC(=N)N)C(=O)N[C@H](C(=O)N[C@@H](Cc1c[nH]cn1)C(=O)N[C@@H](CCCNC(=N)N)C(=O)N[C@@H](CC(C)C)C(=O)N[C@@H](CC(C)C)C(=O)N[C@@H](CCCNC(=N)N)C(=O)N[C@@H](CCCCN)C(=O)O)C(C)C)C(C)C)[C@@H](C)O)C(C)C` [DesHDAP1-A-BF2 (DAB)], the “MIC against B. subtilis” value in test [1] is 4.6 µM (≈ 23 µg/mL). Further, in test [2], the “MIC against E. coli” value was 1.1 µM (≈ 5.5 µg/mL).
